These results are taken from ChEMBL document CHEMBL1154570, “HIV-inhibitory cembrane derivatives from a Philippines collection of the soft coral Lobophytum species” (J Nat Prod, 2000).

In brackets after ≈: the same amount, converted by molar mass.

Experiment [1] has as its system Human immunodeficiency virus 1. Description: Antiviral activity against HIV1 assessed as cellular protection by cell based XTT assay. In kind it is functional.
The subject of experiment [2] is Human immunodeficiency virus 1. Description: Antiviral activity against HIV1 assessed as inhibition of cytopathic effect by cell based XTT assay. It is filed as functional, organism-based.

Consider `C=C1C(=O)O[C@H]2/C=C(\C)CC/C=C(\C(=O)O)CC/C=C(\C)CC[C@@H]12` [(7Z)-LOBOHEDLEOLIDE], for which the Activity in experiment [1] stood at 55%. Moreover, in experiment [2], the EC50 worked out at 4.6 µg/mL (≈ 13.9 µM) and the IC50 turned out to be 7.6 µg/mL (≈ 23 µM).

Turning to `C=C1C(=O)O[C@H]2/C=C(\C)CC/C=C(/C(=O)O)CC/C=C(\C)CC[C@@H]12` [LOBOHEDLEOLIDE], the Activity in experiment [1] turned out to be 55%. Moreover, in experiment [2], the EC50 stood at 3.6 µg/mL (≈ 10.9 µM) and the IC50 is 9 µg/mL (≈ 27.2 µM).

Regarding `C/C1=C\[C@@H]2OC(=O)[C@@H](CN(C)C)[C@@H]2CC/C(C)=C/CC/C(C(=O)O)=C/CC1`, the Activity in experiment [1] is 55%. Also, in experiment [2], the EC50 was 3.3 µg/mL (≈ 8.79 µM) and the IC50 was 10.2 µg/mL (≈ 27.2 µM).

What is called EC50 is the concentration needed to bring the measured effect to its halfway point. A word on the IC50: it is the point on the concentration scale where inhibition reaches its midpoint.
